Source: patent US20040259925A1, “Pharmaceutical compositions and methds for the prevention or treatment of cardiovascular, cardiopulmonary, pulmonary or renal diseases” (Boehringer Ingelheim Pharma GmbH & Co. KG, priority 2003, published 2004)

Legend:
[1] = Dissolution of active substances from Tablet 3; type: physicochemical
Excerpt: This combination of active substances and excipients was then compressed with a suitable tablet press (e.g. Korsch EK0 or Fette P1200) to form tablets.

[2] = biological target: T1, ligand binding domain of the human PPARgamma2 transcription factor fused to yeast GAL4 DNA binding domain (Homo sapiens, UniProt P37231); assay: Luciferase activity in stably transformed PPARgamma reporter cell line (CHO-K1 clone 11); type: cell-based; conditions: for MW (luciferase activity): 24 hours
T1 construct: codes for amino acids 205-505 of the human PPARgamma2 transcription factor; expressed in transfected cells
T1 sequence (P37231 205-505): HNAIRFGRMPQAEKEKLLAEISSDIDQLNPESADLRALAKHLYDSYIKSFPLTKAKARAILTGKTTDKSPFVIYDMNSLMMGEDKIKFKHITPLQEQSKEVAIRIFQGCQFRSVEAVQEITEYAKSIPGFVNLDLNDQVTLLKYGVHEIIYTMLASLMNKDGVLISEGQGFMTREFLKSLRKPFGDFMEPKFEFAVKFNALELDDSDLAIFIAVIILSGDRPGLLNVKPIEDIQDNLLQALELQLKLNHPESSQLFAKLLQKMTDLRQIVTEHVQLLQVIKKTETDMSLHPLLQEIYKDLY
Excerpt: The cells used are CHO cells which are the result of transformation with two gene constructs.
The resulting plasmid pFA-CMV/hPPARgamma2-LBD codes N-terminally of the PPARgamma-LBD in the same reading frame for a Gal4 DNA binding domain. In addition the plasmid codes for neomycin resistance.
The cell line CHO-K1 (ATCC CCL-61) was cotransfected with the plasmids pFA-CMV/hPPARgamma2-LBD and pFR-Luc (Stratagene). pFR-Luc codes for the luciferase gene under the control of a five-times repeated yeast Gal4 binding site. The transfection was carried out with lipofectamine2000 in accordance with the manufacturer's instructions.
After six days' cultivation the cells were passaged and kept in culture for another 10 days. The resulting neomycin-resistant colonies were picked out under the microscope and transferred into 96 well dishes and cultured.
The test substances were brought to 100 times the desired concentration with a suitable solvent, e.g. DMSO, and diluted 1:100 with the medium placed in the cell culture plate. The solvent used, e.g. DMSO, was used as the background control in the same concentration.
Luminescence was measured after a five minute wait using a Packard TopCount NXT. The luciferase activity was obtained by integrating the relative luciferase units (RLU) of the first ten seconds after the start of measurement.

[3] = biological target: T2, human PPARgamma-ligand binding domain (LBD) (Homo sapiens, UniProt P37231); assay: AlphaScreen: recruiting of biotinylated LXXLL peptide of cofactor CBP by GST-PPARgamma-LBD; type: biochemical; conditions: for direct activation of the PPARgamma-LBD / recruiting of the LXXLL peptide: concentrations of up to 50 μM; for MW (AlphaScreen signal): 4 hours
T2 construct: codes for the amino acids 205-505 of the human PPARgamma2 transcription factor; made in house; host or cells: E. coli BL21(DE3), vector pGEX-4T-1
T2 sequence (P37231 205-505): T1 sequence (P37231 205-505)
Procedure: Protein containing the human PPARgamma-ligand binding domain (LBD) was prepared as a GST fusion protein in E. coli and purified by affinity chromatography. […] The fusion protein was expressed in the E. coli strain BL21(DE3) recommended for pGEX vectors after induction with 0.2 mM IPTG for 4 hours at 25° C. The bacteria were pelleted after the induction and frozen in batches in PBS, pH 7.4. After opening up in a French Press, the dissolved GST-PPARgamma-LBD-fusion protein was purified using a GSTrap column (Pharmacia). Elution was carried out by the addition of 20 mM reduced glutathione. The GST-PPARgamma-LBD-protein fractions were desalinated using a HiTrap desalting column (Pharmacia) and the protein concentration was determined using a standard assay.
The assay buffer consisted of 25mM Hepes pH7.4, 100 mM NaCl, 1 mM DTT, 0.1% Tween-20, 0.1% BSA. […] The final DMSO concentration in the assay was 1% (v/v). A 1% DMSO solution was used as the background control (NSB). The measurement was done using a Packard fusion measuring device.

[4] = biological target: T3, human PPARgamma-ligand binding domain (LBD) (Homo sapiens, UniProt P37231); assay: SPA assay: displacement of 3H-labelled rosiglitazone from GST-PPARgamma-LBD; conditions: for MW (SPA signal, bound 3H-rosiglitazone): 30 nM 3H-rosiglitazone, NSB 217, Bmax 911; for displacement of the radioactive rosiglitazone from the binding pocket: very large excesses of test substance
T3 sequence (P37231 205-505): T1 sequence (P37231 205-505)
T3 sequence (P19793 220-461 partner): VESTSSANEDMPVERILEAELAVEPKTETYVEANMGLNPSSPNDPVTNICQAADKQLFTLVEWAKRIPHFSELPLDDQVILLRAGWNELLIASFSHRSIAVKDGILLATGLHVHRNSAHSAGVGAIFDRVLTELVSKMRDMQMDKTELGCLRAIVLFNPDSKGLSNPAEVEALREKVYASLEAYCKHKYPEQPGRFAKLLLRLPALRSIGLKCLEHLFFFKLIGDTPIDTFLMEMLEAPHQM
Procedure: Protein containing the human PPARgamma-ligand binding domain (LBD) was prepared as a GST fusion protein in E. coli and purified by affinity chromatography. To do this, a DNA section which codes for the amino acids 205-505 of the human PPARgamma2 transcription factor (cf. Genbank entry U79012) was subcloned via the additionally inserted restriction cutting sites BamH I and Xho I into the expression vector pGEX-4T-1 (Amersham) and the sequence of the section was monitored. […] The bacteria were pelleted after the induction and frozen in batches in PBS, pH 7.4. After opening up in a French Press, the dissolved GST-PPARgamma-LBD-fusion protein was purified using a GSTrap column (Pharmacia). Elution was carried out by the addition of 20 mM reduced glutathione. The GST-PPARgamma-LBD-protein fractions were desalinated using a HiTrap desalting column (Pharmacia) and the protein concentration was determined using a standard assay. Protein containing the human RXRalpha ligand binding domain (LBD) was prepared as a His tag fusion protein in E. coli and purified by affinity chromatography. To do this a DNA section which codes for the amino acids 220-461 of the human RXRalpha transcription factor (cf. Genbank entry NM_002957, nt 729-1457) was subcloned via the additionally introduced restriction cutting sites BamH I and Not I into the expression vector pET28c (Novagen) and the sequence of the section was monitored. […] The bacteria were pelleted after the expression and frozen in batches in PBS, pH 7.4. After opening up in a French Press, the dissolved His-RXRalpha-LBD-fusion protein is purified using a HiTrap chelating column (Pharmacia). Elution was carried out using a 500 mM imidazole step. The His-RXRalpha-LBD protein fractions were desalinated using a HiTrap desalting column (Pharmacia) and the protein concentration was determined using a standard assay. A description of the SPA assay format can be found in Mukherjee R et al., J Steroid Biochem Mol Biol (2002) 81:217-225. The assay buffer consisted of 20 mM Tris pH 7.5, 25 mM KCl, 10 mM DTT, 0.2% Triton X-100).

SMILES | activation of the PPARgamma pathway in the PPARgamma reporter cell line [2] | MW (luciferase activity) ([2]; test substance 1.00E−04 M) | MW (luciferase activity) ([2]; test substance 1.00E−05 M) | MW (luciferase activity) ([2]; test substance 1.00E−06 M) | MW (luciferase activity) ([2]; test substance 3.00E−05 M) | MW (luciferase activity) ([2]; test substance 3.00E−06 M) | MW (luciferase activity) ([2]; test substance 3.00E−07 M) | direct activation of the PPARgamma-LBD / recruiting of the LXXLL peptide [3] | MW (SPA signal, bound 3H-rosiglitazone) ([4]; test substance 1.00E−04 M) | MW (SPA signal, bound 3H-rosiglitazone) ([4]; test substance 1.00E−05 M) | MW (SPA signal, bound 3H-rosiglitazone) ([4]; test substance 1.00E−06 M) | MW (SPA signal, bound 3H-rosiglitazone) ([4]; test substance 1.00E−07 M) | MW (SPA signal, bound 3H-rosiglitazone) ([4]; test substance 3.00E−05 M) | MW (SPA signal, bound 3H-rosiglitazone) ([4]; test substance 3.00E−06 M) | MW (SPA signal, bound 3H-rosiglitazone) ([4]; test substance 3.00E−07 M) | displacement of the radioactive rosiglitazone from the binding pocket [4] | also measured
NS(=O)(=O)c1cc2c(cc1Cl)NCNS2(=O)=O [hydrochlorothiazide] |  |  |  |  |  |  |  |  |  |  |  |  |  |  |  |  | dissolved after 30 minutes ([1]; Tablet 3, first batch, 900 ml 0.1 M HCl, 100 rpm): 69±6.3%; dissolved after 30 minutes ([1]; Tablet 3, second batch, 900 ml 0.1 M HCl, 100 rpm): 72±2.1%; dissolved after 30 minutes ([1]; Tablet 3, third batch, 900 ml 0.1 M HCl, 100 rpm): 78±1.8%
CCCCC1=NC2(CCCC2)C(=O)N1Cc1ccc(-c2ccccc2-c2nnn[nH]2)cc1 [irbesartan] | only at higher test concentrations and to a lesser extent | 29600 RLU | 3292 RLU | 657 RLU | 22133 RLU | 1028 RLU | 491 RLU | did not result in any direct activation of the PPARgamma-LBD | 510 | 723 | 815 | 913 | 648 | 779 | 810 | no concentration-dependent displacement | 
CCCCc1nc(Cl)c(CO)n1Cc1ccc(-c2ccccc2-c2nn[nH]n2)cc1 [losartan] | only at higher test concentrations and to a lesser extent | 11322 RLU | 709 RLU | 589 RLU | 3271 RLU | 672 RLU | 874 RLU | did not result in any direct activation of the PPARgamma-LBD | 611 | 787 | 901 | 915 | 784 | 814 | 835 | no concentration-dependent displacement | 
CCCc1nc2c(C)cc(-c3nc4ccccc4n3C)cc2n1Cc1ccc(-c2ccccc2C(=O)[O-])cc1.[Na+] [telmisartan sodium salt] |  |  |  |  |  |  |  |  |  |  |  |  |  |  |  |  | dissolved after 30 minutes ([1]; Tablet 3, first batch, 900 ml 0.1 M phosphate buffer pH 7.5, 75 rpm): 92±1.5%; dissolved after 30 minutes ([1]; Tablet 3, second batch, 900 ml 0.1 M phosphate buffer pH 7.5, 75 rpm): 96±1.8%; dissolved after 30 minutes ([1]; Tablet 3, third batch, 900 ml 0.1 M phosphate buffer pH 7.5, 75 rpm): 100±1.0%
CCCc1nc2c(C)cc(-c3nc4ccccc4n3C)cc2n1Cc1ccc(-c2ccccc2C(=O)O)cc1 [telmisartan, 4′-[2-n-propyl-4-methyl-6-(1-methylbenzimidazol-2-yl)-benzimidazol-1-ylmethyl]-biphenyl-2-carboxylic acid] | particularly potent activation |  | 61397 RLU | 2859 RLU | 58790 RLU | 24498 RLU | 760 RLU | did not result in any direct activation of the PPARgamma-LBD | 545 | 703 | 818 | 837 | 691 | 818 | 802 | no concentration-dependent displacement | MW (AlphaScreen signal) ([3]; test substance 1.00E−05 M): 847; MW (AlphaScreen signal) ([3]; test substance 1.00E−06 M): 677; MW (AlphaScreen signal) ([3]; test substance 1.00E−07 M): 606; MW (AlphaScreen signal) ([3]; test substance 3.00E−06 M): 720; MW (AlphaScreen signal) ([3]; test substance 3.00E−07 M): 644; MW (AlphaScreen signal) ([3]; test substance 3.00E−08 M): 642; MW (AlphaScreen signal) ([3]; test substance 5.00E−05 M): 1111
